Measurements taken from patent publication US12234248B2, “Co-crystal compounds comprising lithium ions and isonicotinamide” (UNIVERSITY OF LIMERICK, priority 2017, dated 2025).
Values joined by “and” are separate entries in the source; they are usually repeats but may differ in a detail not shown here. Identical values can stand only once.

How the values were obtained:
[1] = Stability of crystalline material under warm humid conditions (40° C., 75% relative humidity), PXRD before and after; type: physicochemical; details: stored at 40° C., 75% relative humidity; stable = retained crystal form for at least two weeks by PXRD
Protocol: The stability of these compounds under warm humid conditions was assessed as follows:
The crystalline material was stored at 40° C. in an atmosphere of 75% relative humidity.
Compounds were classed as stable if they retained their crystal form for at least two weeks as verified by examination of PXRD patterns collected before and after exposure to humidity.
It can be seen that the pattern obtained after 2 months at 75% relative humidity and 40° C. (upper trace) in this case is different.

[2] = Bioavailability in vivo in rats: lithium in plasma and brain by ICP-OES after oral administration; details: for BRAIN CONC., Time(h) 2.00 / PLASMA CONC, Time(h) 2.00: 2 h; for BRAIN CONC., Time(h) 2.00 / BRAIN CONC., Time(h) 24.00 / BRAIN CONC., Time(h) 48.00 / BRAIN CONC., Time(h) 72.00: lithium in brain; for BRAIN CONC., Time(h) 2.00 / PLASMA CONC, Time(h) 2.00 / BRAIN CONC., Time(h) 24.00 / PLASMA CONC, Time(h) 24.00 / BRAIN CONC., Time(h) 48.00 / PLASMA CONC, Time(h) 48.00 / BRAIN CONC., Time(h) 72.00 / PLASMA CONC, Time(h) 72.00: individual rats (three per time); for PLASMA CONC, Time(h) 2.00 / PLASMA CONC, Time(h) 24.00 / PLASMA CONC, Time(h) 48.00 / PLASMA CONC, Time(h) 72.00: lithium in plasma; for BRAIN CONC., Time(h) 24.00 / PLASMA CONC, Time(h) 24.00: 24 h; for BRAIN CONC., Time(h) 48.00 / PLASMA CONC, Time(h) 48.00: 48 h; for BRAIN CONC., Time(h) 72.00 / PLASMA CONC, Time(h) 72.00: 72 h
Protocol: Male Sprague-Dawley rats, weighing 240-290 g, were treated through gastric intubation with formulations of lithium and compared with lithium carbonate as a reference. For each formulation a group of 12 rats was treated. 4 mEq/kg of lithium were orally administered, after suspension in 2 mL of corn seeds oil (“Olio Cuore”).
Four intervals' post-administration time (2, 24, 48 and 72 hours) were considered and three rats for each of them, employing the protocol used by Zaworotko and coworkers (Smith et al., Mol. Pharmaceutics 2013, 10, 4728-4738). At each time interval blood samples were collected through intra-cardiac […], these were treated with 50 μL of sodium heparin and centrifuged for 10 min at 1600 rpm. Plasma samples of approximately […] each were thus obtained. The brain was explanted in toto with perfusion with phosphate buffered saline (PBS) in order to preserve it in a viable state. The plasma and brain samples were immediately frozen at a temperature of −80° C., after measuring the weight of the brains.
In order to determine the concentration of the lithium by means of the ICP-OES (Inductively Coupled Plasma Optical Emission Spectometry) analysis, plasma and brain samples were purified and mineralized, respectively to obtain solutions suitable for analysis.
A 0.5 mL aliquot was taken from each sample, to which were added equal amounts of MilliQ water and concentrated nitric acid, in order to bring the lithium ion in solution in the form of LiNO3 and to obtain the precipitation of the proteins. At this point, each sample was sonicated for 10 min in an ultrasonic bath and diluted to a volume of 5.0 mL.
All samples were subjected to centrifugation for a period of 40 min, at a rotational speed of 6000 rpm, to obtain complete plasma proteins/solution separation. At the end supernatant liquid containing lithium was diluted to a final volume of 15 mL by adding MilliQ water. The obtained solutions were stored at a temperature of 4° C. until analysis.
The purpose of this phase was to obtain liquid samples, suitable to ICP-OES analysis, containing lithium in solution, starting from the solid organic tissue of the brain. The mineralization process allows the complete degradation of organic substances until the total transformation into simple inorganic substances.
The first operation performed was that the drying of the fabric, obtained through the use of a digester open PerkinElmer SPB 100-12: each sample of brain has been inserted in special containers Digitube™ 100 mL and maintained at a temperature of 80° C. for 120 min.
The second step involved the mineralization true and proper brain: each sample were added to 10 mL of concentrated nitric acid and 1.0 mL of hydrogen peroxide, then the system was brought to a temperature of 120° C. for 120 min. until the complete mineralization. With this procedure you get the desired biological degradation of organic compounds and the consequent passage of lithium in solution. The solutions thus obtained were collected, brought to a final volume of 20 mL with MilliQ water and preserved at a temperature of 4° C. until time of analysis.
In order to obtain the determination of lithium ion concentrations in the samples previously prepared, optical emission spectrometry inductively coupled plasma ICP-OES was used (PerkinElmer Optima 8000 spectrometer).
The analysis was conducted at the fixed wavelength of lithium (λ=670.784 nm) and the intensity of the radiation emitted by each sample was measured and compared standard solutions.
Plasma and brain concentration data were processed using a non-compartmental approach using WinNonlin® software (Pharsight Corporation, USA) and Microsoft Excel XP (Microsoft Corporation, […]).

[3] = rat brain, 4 mEq/kg lithium oral, non-compartmental
[4] = rat brain, 4 mEq/kg lithium oral, terminal phase
[5] = rat brain, 4 mEq/kg lithium oral, time 0 to last quantifiable point
[6] = rat brain, relative to lithium carbonate
[7] = rat plasma, 4 mEq/kg lithium oral, non-compartmental
[8] = rat plasma, 4 mEq/kg lithium oral, terminal phase
[9] = rat plasma, relative to lithium carbonate

SMILES | Stable? [1] | Cmax (brain) [2, 3] [µg/g] | Tmax (brain) [2, 3] [h] | t½_Lambda_z (brain) [2, 4] [h] | AUClast (brain) [2, 5] [mg·h/g] | Relative Brain BA (UL crystal forms, oral vs Li2CO3, oral) [2, 6] [%] | Cmax (plasma) [2, 7] [ng/mL] | Tmax (plasma) [2, 7] [h] | t½_Lambda_z (plasma) [2, 8] [h] | Relative Plasma BA (UL crystal forms, oral vs Li2CO3 oral) [2, 9] [%] | BRAIN CONC., Time(h) 2.00 ([2]; rat, 4 mEq/kg lithium oral) | PLASMA CONC, Time(h) 2.00 ([2]; rat, 4 mEq/kg lithium oral) | BRAIN CONC., Time(h) 24.00 ([2]; rat, 4 mEq/kg lithium oral) | PLASMA CONC, Time(h) 24.00 ([2]; rat, 4 mEq/kg lithium oral) | BRAIN CONC., Time(h) 48.00 ([2]; rat, 4 mEq/kg lithium oral) | PLASMA CONC, Time(h) 48.00 ([2]; rat, 4 mEq/kg lithium oral) | BRAIN CONC., Time(h) 72.00 ([2]; rat, 4 mEq/kg lithium oral) | PLASMA CONC, Time(h) 72.00 ([2]; rat, 4 mEq/kg lithium oral) | other results
COc1ccc(C(=O)[O-])cc1.O=C(O)[C@@H]1CCCN1.[Li+] [Compound 5, [Li(4-methoxybenzoate)(L-proline)]n] | Yes | 4.9833 | 48 | 13.4751 | 229.3867 | 98.70 | 6080 | 24 | 16.5057 | 90.41 | 0.23 µg/g and 0.48 µg/g and 0.46 µg/g | 2820 ng/mL and 4020 ng/mL and 2650 ng/mL | 4.44 µg/g and 4.46 µg/g and 2.54 µg/g | 7150 ng/mL and 6800 ng/mL and 4290 ng/mL | 4.42 µg/g and 4.76 µg/g and 5.77 µg/g | 1450 ng/mL and 1910 ng/mL and 3650 ng/mL | 1.08 µg/g and 0.43 µg/g and 2.84 µg/g | 630 ng/mL and 480 ng/mL and 1320 ng/mL | concentration of lithium in the brain compared with lithium carbonate ([2]; rat brain, after 48 hours, FIG. 12): higher
COc1cccc(C(=O)[O-])c1.O=C(O)[C@@H]1CCCN1.[Li+] [Compound 6, [Li(3-methoxybenzoate)(L-proline)]n] | Yes | 4.3733 | 24 | 15.3888 | 172.7467 | 74.33 | 6383.3 | 24 | 10.4363 | 74.07 | 0.64 µg/g and 0.44 µg/g and 0.73 µg/g | 3030 ng/mL and 1430 ng/mL and 3380 ng/mL | 4.54 µg/g and 4.21 µg/g and 4.37 µg/g | 5950 ng/mL and 4760 ng/mL and 8440 ng/mL | 2.84 µg/g and 2.06 µg/g and 2.46 µg/g | 670 ng/mL and 740 ng/mL and 870 ng/mL | 0.59 µg/g and 0.49 µg/g and 0.43 µg/g | 230 ng/mL and 310 ng/mL and 250 ng/mL | 
NC(=O)c1ccncc1.NC(=O)c1ccncc1.O=C([O-])CCC(=O)[O-].[Li+].[Li+] [Compound 7, [Li2(succinate) (isonicotinamide)2]n] | Yes |  |  |  |  |  |  |  |  |  |  |  |  |  |  |  |  |  | AUC (Cerebral)/AUC (Plasma) ([2]; rat, in vivo): 1.077; AUC(0-t) ([2]; rat, in vivo, po): 197 µg·h/mL; AUClast (brain) ([2]; rat, in vivo, po): 211.7400 mg·h/g; Cmax (brain) ([2]; rat, in vivo, po): 5.1533 µg/g; Cmax (plasma) ([2]; rat, in vivo, po): 4140 ng/mL; Relative Brain BA (UL crystal forms, oral vs Li2CO3, oral) ([2]; rat, in vivo, po): 91.11%; Relative Plasma BA (UL crystal forms, oral vs Li2CO3 oral) ([2]; rat, in vivo, po): 72.96%; Tmax (brain) ([2]; rat, in vivo, po): 48 h; Tmax (plasma) ([2]; rat, in vivo, po): 24 h; t½_Lambda_z (brain) ([2]; rat, in vivo, po): 7.7957 h; t½_Lambda_z (plasma) ([2]; rat, in vivo, po): 15.0424 h
